Experimental data taken from publication PMC11545510, “Goat Milk Protein-Derived ACE Inhibitory Peptide SLPQ Exerts Hypertension Alleviation Effects Partially by Regulating the Inflammatory Stress of Endothelial Cells” (Foods, 2024).
Where a SMILES comes first, the peptide text is derived from it.

Legend:
EA.hy926 cells = experiment: MTT cell viability; type: cell-based; conditions: 12 or 24 h; for viability of EA.hy926 cells: concentration lower than 200 μg/mL
Protocol: The cells were cultured in DMEM with 100 units/mL streptomycin–penicillin plus 2% FBS under an atmosphere of 5% CO2, 37 °C, and 100% humidity. The cells were seeded in 96-well plates at a density of 1 × 10^5 cells/well, and then treated with different concentrations of SLPQ (0, 12.5, 25, 50, 100, 200, 400, 800 μg/mL) or PYVRYL (0, 25, 50, 100, 200, 400, 800 μg/mL) for 12 or 24 h. After that, 0.05 mg/mL of MTT was added to each well and the plate was incubated for four hours at 37 °C. Finally, the culture media were replaced with 150 μL DMSO, and the OD value was detected at a wavelength of 570 nm (Infinity F200 microplate reader, Mainz, Germany).

eNOS = conditions: goat milk-derived ACE-inhibitory peptide; ref [39]; cited from earlier work
Protocol: Consequently, peptides SLPQ or PYVRYL were supplemented at concentrations ranging from 0 to 200 μg/mL in the following study. The bradykinin–NO signaling pathway can be activated by […] [44], and NO plays an important role in regulating blood pressure and the tension of vascular smooth muscle. Therefore, the content of NO in the ...

Compound	toxic effects on EA.hy926 cells (EA.hy926 cells; 400 μg/mL)	toxic effects on EA.hy926 cells (EA.hy926 cells; 800 μg/mL)	viability of EA.hy926 cells (EA.hy926 cells)	NO production and eNOS expression (eNOS)
CC(C)C[C@H](NC(=O)[C@H](Cc1ccc(O)cc1)NC(=O)[C@H](CCCNC(=N)N)NC(=O)[C@@H](NC(=O)[C@H](Cc1ccc(O)cc1)NC(=O)[C@@H]1CCCN1)C(C)C)C(=O)O [PYVRYL] (H-PYVRYL-OH)	obvious toxic effects	obvious toxic effects	not affected	–
SQPK	–	–	–	elevate NO production and eNOS expression
CC(C)C[C@H](NC(=O)[C@@H](N)CO)C(=O)N1CCC[C@H]1C(=O)N[C@@H](CCC(N)=O)C(=O)O [SLPQ] (H-SLPQ-OH)	obvious toxic effects	obvious toxic effects	not affected	–
